Data: patent US9134309B2, “Polypeptide display libraries and methods of making and using thereof” (The Regents of the University of California, priority 2003, dated 2015)

Molecular target: T1, streptavidin (Streptomyces avidinii, UniProt P22629)
T1 construct: purchased Molecular Probes (Eugene, Oreg.)
Experiment: dissociation of SA-1 peptide grafted into YFP from streptavidin coated beads, flow cytometry
Type: binding
Settings: SA-1 inserted into YFP after Y145, soluble fusion protein, 1 μM biotin
Protocol: See Baird, G. S. et al. (1999) PNAS USA 96(20):11241-11246, which is herein incorporated by reference. […] See Bessette, P. H., et al. (1999) PNAS USA 96(24):13703-13708, which is herein incorporated by reference. […] Using flow cytometry, the dissociation rate constant of the steptavidin binding fluorescent protein was determined to be 0.02 s^−1.
The soluble protein was isolated using B-PER II bacterial protein extraction reagent (Pierce Biotechnology, Rockford, Ill.) following the manufacturer's protocol. About 10^7 streptavidin coated magnetic beads (Dynal Inc., Brown Deer, Wis.) were added to 40 μl of cell lysate and equilibrated at room temperature for 20 minutes. The beads were washed once in 2 ml of PBS; biotin was added to a final concentration of 1 μM, and immediately analyzed by flow cytometry as above. Lysate from a strain expressing YFP with a T7•tag insertion at the same location was used as a negative control.

T1 sequence (P22629 25-183): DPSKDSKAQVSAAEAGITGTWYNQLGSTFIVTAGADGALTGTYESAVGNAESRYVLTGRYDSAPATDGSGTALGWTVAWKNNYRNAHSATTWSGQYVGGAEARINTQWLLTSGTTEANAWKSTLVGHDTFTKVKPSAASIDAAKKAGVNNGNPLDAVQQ

**Q.** How did the dissociation rate constant turn out when RLEICQNVCYYLGTL [SA-1] was run?
**A.** Its dissociation rate constant is 0.02 s⁻¹.
